Patent publication US20080090805A1, “CB-1 MODULATING COMPOUNDS AND THEIR USE” (ACADIA PHARMACEUTICALS INC., priority 2005, published 2008)

Assays:
[1] = Clearance study, liver microsomes (rats); details: rat, pH 7.4
[2] = Clearance study, liver microsomes (mice); details: mouse, pH 7.4
[3] = Clearance study, liver microsomes (human); details: pH 7.4

SMILES: CC(C)CNC(=O)c1ccc2c(c1)N=C(c1ccc(F)cc1)c1ccccc1S2 [drawing 1761]
- microsomal CLint at 1 μM [1]: 125 µL/min/mg
- microsomal CLint at 1 μM [2]: 354 µL/min/mg
- microsomal CLint at 1 μM [3]: 43 µL/min/mg

SMILES: O=C(NCCc1cccnc1)c1ccc2c(c1)N=C(c1ccc(Cl)s1)c1ccccc1S2 [drawing 1690]
- microsomal CLint at 1 μM [1]: 96 µL/min/mg
- microsomal CLint at 1 μM [2]: 122 µL/min/mg
- microsomal CLint at 1 μM [3]: 238 µL/min/mg

SMILES: C[C@@H]1CCC[C@H](C)N1NC(=O)c1ccc2c(c1)N=C(c1cccc(F)c1)c1ccccc1S2 [drawing 1758]
- microsomal CLint at 1 μM [1]: 318 µL/min/mg
- microsomal CLint at 1 μM [2]: 659 µL/min/mg
- microsomal CLint at 1 μM [3]: 513 µL/min/mg

SMILES: Cc1ccsc1C1=Nc2cc(C(=O)NN3CCCCCC3)ccc2Sc2ccccc21 [drawing 1706]
- microsomal CLint at 1 μM [1]: 358 µL/min/mg
- microsomal CLint at 1 μM [2]: 448 µL/min/mg
- microsomal CLint at 1 μM [3]: 118 µL/min/mg

SMILES: O=C(NC1CCCCC1)c1ccc2c(c1)N=C(c1cccc(F)c1)c1ccccc1S2 [drawing 1757]
- microsomal CLint at 1 μM [1]: 90 µL/min/mg
- microsomal CLint at 1 μM [2]: 176 µL/min/mg
- microsomal CLint at 1 μM [3]: 29 µL/min/mg

SMILES: O=C(NCc1cccs1)c1ccc2c(c1)N=C(c1ccc(F)cc1)c1ccccc1S2 [drawing 1659]
- microsomal CLint at 1 μM [1]: 171 µL/min/mg
- microsomal CLint at 1 μM [2]: 171 µL/min/mg
- microsomal CLint at 1 μM [3]: 52 µL/min/mg

SMILES: CCCCNC(=O)c1ccc2c(c1)N=C(c1ccc(F)cn1)c1ccccc1S2 [drawing 1752]
- microsomal CLint at 1 μM [1]: 264 µL/min/mg
- microsomal CLint at 1 μM [2]: 668 µL/min/mg
- microsomal CLint at 1 μM [3]: 56 µL/min/mg

SMILES: Cc1ccsc1C1=Nc2cc(C(=O)NN3CCCCC3)ccc2Sc2ccccc21 [drawing 1730]
- microsomal CLint at 1 μM [1]: 304 µL/min/mg
- microsomal CLint at 1 μM [2]: 385 µL/min/mg
- microsomal CLint at 1 μM [3]: 50 µL/min/mg

SMILES: O=C(NCc1cccs1)c1ccc2c(c1)N=C(c1ccc(Cl)cc1)c1ccccc1S2 [drawing 1735]
- microsomal CLint at 1 μM [1]: 76 µL/min/mg
- microsomal CLint at 1 μM [2]: 90 µL/min/mg
- microsomal CLint at 1 μM [3]: 17 µL/min/mg

SMILES: O=C(NCc1cccnc1)c1ccc2c(c1)N=C(c1ccc(Br)cc1)c1ccccc1S2 [drawing 1728]
- microsomal CLint at 1 μM [1]: 70 µL/min/mg
- microsomal CLint at 1 μM [2]: 83 µL/min/mg
- microsomal CLint at 1 μM [3]: 39 µL/min/mg

SMILES: O=C(NCc1ccccc1)c1ccc2c(c1)N=C(c1cccc(Cl)c1)c1ccccc1S2 [drawing 1767]
- microsomal CLint at 1 μM [1]: 85 µL/min/mg
- microsomal CLint at 1 μM [2]: 205 µL/min/mg
- microsomal CLint at 1 μM [3]: 23 µL/min/mg

SMILES: O=C(NN1CCCCC1)c1ccc2c(c1)N=C(c1ccc(Cl)cn1)c1ccccc1S2 [drawing 1786]
- microsomal CLint at 1 μM [1]: 290 µL/min/mg
- microsomal CLint at 1 μM [2]: 416 µL/min/mg
- microsomal CLint at 1 μM [3]: 64 µL/min/mg

SMILES: CCCNC(=O)c1ccc2c(c1)N=C(c1ccc(Cl)cc1)c1ccccc1S2 [drawing 1691]
- microsomal CLint at 1 μM [1]: 63 µL/min/mg
- microsomal CLint at 1 μM [2]: 694 µL/min/mg
- microsomal CLint at 1 μM [3]: 15 µL/min/mg

SMILES: O=C(NCc1ccccc1)c1ccc2c(c1)N=C(c1cccc(Br)c1)c1ccccc1S2
- microsomal CLint at 1 μM [1]: 69 µL/min/mg
- microsomal CLint at 1 μM [2]: 566 µL/min/mg
- microsomal CLint at 1 μM [3]: 4 µL/min/mg

SMILES: O=C(NCc1ccco1)c1ccc2c(c1)N=C(c1ccc(Cl)s1)c1ccccc1S2 [drawing 1656]
- microsomal CLint at 1 μM [1]: 98 µL/min/mg
- microsomal CLint at 1 μM [2]: 127 µL/min/mg
- microsomal CLint at 1 μM [3]: 42 µL/min/mg

SMILES: O=C(NC1CCCCC1)c1ccc2c(c1)N=C(c1ccc(F)cc1)c1ccccc1S2 [drawing 1683]
- microsomal CLint at 1 μM [1]: 108 µL/min/mg
- microsomal CLint at 1 μM [2]: 62 µL/min/mg
- microsomal CLint at 1 μM [3]: 31 µL/min/mg

SMILES: CCCCNC(=O)c1ccc2c(c1)N=C(c1ccc(Br)cn1)c1ccccc1S2 [drawing 1654]
- microsomal CLint at 1 μM [1]: 299 µL/min/mg
- microsomal CLint at 1 μM [2]: 348 µL/min/mg
- microsomal CLint at 1 μM [3]: 63 µL/min/mg

SMILES: O=C(NCc1cccnc1)c1ccc2c(c1)N=C(c1ccc(Cl)c(Cl)c1)c1ccccc1S2 [drawing 1664]
- microsomal CLint at 1 μM [1]: 33 µL/min/mg
- microsomal CLint at 1 μM [2]: 38 µL/min/mg
- microsomal CLint at 1 μM [3]: 19 µL/min/mg

SMILES: O=C(NN1CCCCC1)c1ccc2c(c1)N=C(c1ccc(Cl)cc1)c1ccccc1S2 [drawing 1676]
- microsomal CLint at 1 μM [1]: 60 µL/min/mg
- microsomal CLint at 1 μM [2]: 126 µL/min/mg
- microsomal CLint at 1 μM [3]: 32 µL/min/mg

SMILES: O=C(NCc1cccc(Cl)c1)c1ccc2c(c1)N=C(c1ccc(F)cc1)c1ccccc1S2(=O)=O [drawing 1670]
- microsomal CLint at 1 μM [1]: 31 µL/min/mg
- microsomal CLint at 1 μM [2]: 32 µL/min/mg
- microsomal CLint at 1 μM [3]: 32 µL/min/mg

SMILES: CCCCNC(=O)c1ccc2c(c1)N=C(c1cccc(F)c1)c1ccccc1S2 [drawing 1700]
- microsomal CLint at 1 μM [1]: 152 µL/min/mg
- microsomal CLint at 1 μM [2]: 647 µL/min/mg
- microsomal CLint at 1 μM [3]: 65 µL/min/mg

SMILES: O=C(NCc1ccco1)c1ccc2c(c1)N=C(c1ccc(Cl)cc1)c1ccccc1S2 [drawing 1803]
- microsomal CLint at 1 μM [1]: 75 µL/min/mg
- microsomal CLint at 1 μM [2]: 97 µL/min/mg
- microsomal CLint at 1 μM [3]: 29 µL/min/mg

SMILES: O=C(NCc1cccnc1)c1ccc2c(c1)N=C(c1cccc(F)c1)c1ccccc1S2 [drawing 1742]
- microsomal CLint at 1 μM [1]: 187 µL/min/mg
- microsomal CLint at 1 μM [2]: 127 µL/min/mg
- microsomal CLint at 1 μM [3]: 73 µL/min/mg

SMILES: O=C(NCc1cccc(Cl)c1)c1ccc2c(c1)N=C(c1ccc(Cl)cc1)c1ccccc1S2 [drawing 1725]
- microsomal CLint at 1 μM [1]: 58 µL/min/mg
- microsomal CLint at 1 μM [2]: 238 µL/min/mg
- microsomal CLint at 1 μM [3]: 9 µL/min/mg
